Laboratory results from patent US20240279202A1 (NURIX THERAPEUTICS, INC., priority 2021, published 2024).

Target: T1, ITK (Homo sapiens, UniProt Q08881)
T1 sequence (Q08881 1-620): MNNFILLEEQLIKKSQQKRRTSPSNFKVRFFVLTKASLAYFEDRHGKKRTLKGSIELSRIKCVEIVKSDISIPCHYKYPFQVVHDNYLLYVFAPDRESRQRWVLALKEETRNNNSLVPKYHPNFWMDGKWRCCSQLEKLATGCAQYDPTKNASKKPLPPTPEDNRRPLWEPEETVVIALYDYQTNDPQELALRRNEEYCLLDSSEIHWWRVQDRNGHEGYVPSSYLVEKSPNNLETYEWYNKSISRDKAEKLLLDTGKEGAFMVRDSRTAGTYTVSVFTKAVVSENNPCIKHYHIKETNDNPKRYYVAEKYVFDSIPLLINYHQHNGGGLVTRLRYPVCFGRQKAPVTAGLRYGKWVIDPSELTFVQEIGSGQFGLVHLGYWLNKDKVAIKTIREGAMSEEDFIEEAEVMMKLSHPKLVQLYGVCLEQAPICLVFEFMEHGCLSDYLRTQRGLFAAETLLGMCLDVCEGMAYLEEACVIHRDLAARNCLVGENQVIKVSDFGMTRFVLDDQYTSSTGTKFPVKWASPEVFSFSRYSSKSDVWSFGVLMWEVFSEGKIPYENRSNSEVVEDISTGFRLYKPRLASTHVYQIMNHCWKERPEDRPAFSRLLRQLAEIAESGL
Assay: ITK degradation HiBiT assay
Type: cell-based
Design: expressed in transfected cells; host or cells: Molt4 (ATCC CRL-1552), monoclonal clone 1C10, engineered to carry the HiBiT tag
Details: 4 hrs; for DC50: C-terminal HiBiT-tagged Molt4 cells; for Dmax: MOLT-4, C-terminal HiBiT-tagged Molt4 cells
Protocol: Itk Degradation Hibit Assay
Compounds provided herein were assayed in vitro with ITK HiBit cell lines. Compound dilution series (11-point, 5 fold dilutions in DMSO, columns 2-12 with replicate in rows A/B, C/D, E/F, G,H at 2000× the final required concentrations were prepared in 96 well plates (Falcon, cat. no. 353077). Column 1, rows A-H were control DMSO. The 2000× solutions ranged from 2 mM to 1.024 nM (final assay concentration range 1 μM to […]). The 2000× solutions were added to cells in […], for a final DMSO concentration of 0.5% and final assay compound concentration of 1×. For the cells, C-terminal HiBiT-tagged Molt4 cells (ATCC CRL-1552, monoclonal cell line clone 1C10) were plated at 1×10^6 cells/mL, 100 μL/well ([…]) in complete RPMI (10% FBS, 1% L-glutamine). The cells were incubated with compound 10 and compound 17 for 4 hrs at […]/6% CO2.
Following incubation, 100 μL of complete Nano-Glo HiBiT Lytic Detection Reagent (Nano-Glo HiBiT Lytic Buffer with 1:50 Nano-Glo HiBiT Lytic Substrate and 1:100 LgBiT Protein; Promega cat. no. N3040) was added. Cells were further incubated for 10 min at room temperature (RT). Luminescence units (LU) were read on an EnVision plate reader (Perkin Elmer, 0.1 sec per well). Percent ITK remaining per sample was calculated as follows: […]
Using Graphpad Prism, % ITK remaining values were plotted as a function of compound concentration. To determine DC50 and Dmax values, resulting curves were fit to the Prism curve-fitting equation “log(inhibitor) vs response—Variable slope (four parameters)” (reported best fit value IC50 used as DC50). ITK was measured with antibody-based MSD (Meso-Scale Discovery) assays shown below.

DC50 | Dmax | Compound
0.013 nM | 64% | Cn1c(=O)n(C2CCC(=O)NC2=O)c2cccc(N3CCC(C(=O)N4CC(n5cc(NC(=O)c6n[nH]c7c6C[C@@H]6C(F)(F)[C@]6(C)C7)cn5)C4)CC3)c21 (stereo partly drawn) [Compound 56, (4aS,5aR)-N-(1-(1-(1-(1-(2,6-dioxopiperidin-3-yl)-3-methyl-2-oxo-2,3-dihydro-1H-benzo[d]imidazol-4-yl)piperidine-4-carbonyl)azetidin-3-yl)-1H-pyrazol-4-yl)-5,5-difluoro-5a-methyl-1,4,4a,5,5a,6-hexahydrocyclopropa[f]indazole-3-carboxamide]
< 0.01 nM | 90% | Cn1c(=O)n(C2CCC(=O)NC2=O)c2cccc(N3CCC(CN4CC(n5cc(NC(=O)c6n[nH]c7c6C[C@@H]6C(F)(F)[C@]6(C)C7)cn5)C4)CC3)c21 (stereo partly drawn) [Compound 57, (4aS,5aR)-N-(1-(1-((1-(1-(2,6-dioxopiperidin-3-yl)-3-methyl-2-oxo-2,3-dihydro-1H-benzo[d]imidazol-4-yl)piperidin-4-yl)methyl)azetidin-3-yl)-1H-pyrazol-4-yl)-5,5-difluoro-5a-methyl-1,4,4a,5,5a,6-hexahydrocyclopropa[f]indazole-3-carboxamide]
0.05 nM | 81% | CC1(C)CCc2c(-c3cc4ccc(C(=O)N5CCC(CN6CCN(c7ccc(C8CCC(=O)NC8=O)cn7)CC6)CC5)cc4[nH]3)n[nH]c2C1 (centres unmarked) [Compound 59, 3-(6-(4-((1-(2-(6,6-dimethyl-4,5,6,7-tetrahydro-1H-indazol-3-yl)-1H-indole-6-carbonyl)piperidin-4-yl)methyl)piperazin-1-yl)pyridin-3-yl)piperidine-2,6-dione]
0.002 nM | 72% | CN(c1ccc(C2CCC(=O)NC2=O)cn1)C1CCN(CC2CCN(C(=O)c3ccc4cc(-c5n[nH]c6c5CCC(C)(C)C6)[nH]c4c3)CC2)CC1 (centres unmarked) [Compound 62, 3-(6-((1-((1-(2-(6,6-dimethyl-4,5,6,7-tetrahydro-1H-indazol-3-yl)-1H-indole-6-carbonyl)piperidin-4-yl)methyl)piperidin-4-yl)(methyl)amino)pyridin-3-yl)piperidine-2,6-dione]
0.003 nM | 80% | CN(CC1CCN(C(=O)c2ccc3cc(-c4n[nH]c5c4CCC(C)(C)C5)[nH]c3c2)CC1)C1CCN(c2ccc(C3CCC(=O)NC3=O)cn2)CC1 (centres unmarked) [Compound 63, 3-(6-(4-(((1-(2-(6,6-dimethyl-4,5,6,7-tetrahydro-1H-indazol-3-yl)-1H-indole-6-carbonyl)piperidin-4-yl)methyl)(methyl)amino)piperidin-1-yl)pyridin-3-yl)piperidine-2,6-dione]
– | 53% | CN(C(=O)CCC1CCN(c2ccc(C3CCC(=O)NC3=O)cn2)C1)c1ccc2cc(-c3n[nH]c4c3C[C@@H]3C(F)(F)[C@]3(C)C4)[nH]c2c1 (stereo partly drawn) [Compound 70, N-(2-((4aS,5aR)-5,5-difluoro-5a-methyl-1,4,4a,5,5a,6-hexahydrocyclopropa[f]indazol-3-yl)-1H-indol-6-yl)-3-(1-(5-(2,6-dioxopiperidin-3-yl)pyridin-2-yl)pyrrolidin-3-yl)-N-methylpropanamide]
5.2 nM | 70% | CN(C(=O)CN1CC2(CCN(c3ccc4c(c3)C(=O)N(C3CCC(=O)NC3=O)C4=O)C2)C1)c1ccc2cc(-c3n[nH]c4c3C[C@@H]3C(F)(F)[C@]3(C)C4)[nH]c2c1 (some centres unmarked) [Compound 71]
10.5 nM | – | CN(C(=O)C1CCN(CC2CCN(c3ccc(C4CCC(=O)NC4=O)cn3)CC2)CC1)c1ccc2cc(-c3n[nH]c4c3C[C@@H]3C(F)(F)[C@]3(C)C4)[nH]c2c1 (stereo partly drawn) [Compound 74, N-(2-((4aS,5aR)-5,5-difluoro-5a-methyl-1,4,4a,5,5a,6-hexahydrocyclopropa[f]indazol-3-yl)-1H-indol-6-yl)-1-((1-(5-(2,6-dioxopiperidin-3-yl)pyridin-2-yl)piperidin-4-yl)methyl)-N-methylpiperidine-4-carboxamide]
